Measurements from US20220211876A1, “LESION DETECTION METHOD” (MIE UNIVERSITY, priority 2019, published 2022).
Entries after “also recorded” stand apart in the source; their conditions may differ.

Experiments:
[1] = molecular target: T1, STAT3 (Homo sapiens, UniProt P40763); test: Staining of cells that overexpress a cancer-related gene product (STAT3); type: cell-based
T1 construct: endogenous in cells
Description: For the visualization of expression patterns of cancer-related genes in living cells, the inventors stained a cancer-related gene product to chromatic color using staining agents containing edible dyes and photographed. An edible dye is a natural or artificial dye which has been permitted to be administered to human (For example, a dye for food coloring, or a dye that can be taken as supplements).
Specifically, a staining agent containing curcumins (C21H20O6) can be used to selectively stain a STAT3-based cancer-related gene product. In addition, a staining agent containing Red #3 (erythrosine) can be used to selectively stain the expression pattern of ras-based cancer-related gene.
More specifically, as a staining agent containing curcumins, a solution containing 1% by weight of curcumin was prepared. As a staining agent containing Red #3, a solution containing 1% by weight of phloxine was prepared. […]
When a staining agent containing curcumins is used, the expression of a STAT3-based cancer-related gene product in living cells can be visualized by staining. […] Accordingly, the nucleus surrounded by the cytoplasm is clearly visualized, making it clearer to be analyzed.

[2] = tested on: large intestine (cancer tumor site) of a colon cancer mouse; test: Vital staining of the cancer tumor site of a colon cancer mouse, laser microscope imaging; type: in vivo
Method: (§1) 100 mg of curcumin (Tokyo Kasei, cat. #C2302, purity 97.0%) was suspended in 5 mL of ethanol, and further diluted 10-fold with ethanol. It was mixed with the same amount of glycerin, and further diluted 10-fold with glycerin. The mixture was mixed with the same amount of purified water to obtain a staining solution of curcumin. Regarding Red #106, its staining solution is obtained by dissolving the powder in saline to achieve a concentration of 1 mg/mL.
(§2) C57BL/6N mice purchased from Japan SLC, Inc. were used in the tests. All tests were performed on male, 8-week-old mice weighing 20˜25 grams.
Model mice with colon cancer were prepared by intraperitoneally administering 10 mg/kg of azoxymethane (AOM) dissolved in saline 4 times at weekly intervals to the C57BL/6N mice.
(§3) A multiphoton laser microscope of FVMPE-RS (Olympus) was used with the irradiation wavelength of 800 nm, wherein the laser irradiation was performed at 5.8˜48.2% of its full power output. A confocal laser microscope of FV1000 (Olympus) was used with the irradiation wavelength of 488 nm and 594 nm, wherein the laser irradiation at 488 nm was performed at 15˜29.4% of its full power output, and the laser irradiation at 594 nm was performed at 13˜13.5% of its full power output.

[3] = tested on: olfactory receptor neurons; test: Vital staining by coating onto nasal mucosa, laser microscope; type: in vivo, mouse; settings: coating on nasal mucosa
Description: FIG. 26 is a diagram showing, at high magnification, examples of visualization with a multiphoton laser microscope of olfactory receptor neurons, which are odor sensory cells, after vital staining by coating curcumin onto nasal mucosa of a mouse. […] Since a nucleus is not stained, it is viewed as a black negative image. By coating curcumin on nasal mucosa, olfactory receptor neuronal cells, which are odor sensing cells, can be visualized. Accordingly, olfactory disorders can be examined.

[4] = tested on: Auerbach's plexus in large intestine; test: Curcumin staining of freshly resected colon of a patient with Hirschsprung-like disease, multiphoton laser microscope; set-up: species or system human
Method: In an embodiment of the present invention, curcumin was administered to a freshly resected colon from a patient with Hirschsprung-like disease, and then a multiphoton laser microscope was used to visualize Auerbach's plexus. […] (FIG. 39). Therefore, intraoperative rapid diagnosis by a multiphoton laser microscope of freshly resected large intestine of a patient with Hirschsprung-like disease can be performed and appropriate surgical resection sites can be confirmed.

[5] = tested on: nerve fibers (myelin sheath); test: Vital staining of nerve fibers, multiphoton laser microscope; type: in vivo, mouse; settings: intraperitoneal administration, FIG. 25
Description: FIG. 25 is a diagram showing, at high magnification, examples of visualization with a laser multiphoton microscope of olfactory nerve fibers after vital staining by intraperitoneal administration of curcumin to a mouse.

[6] = Fluorescent color by laser irradiation; type: physicochemical
Description: Regarding staining an organ tissue, the object in the organ to be visualized differs depending on the staining agent used. For example, curcumin and Red #3 are suitable for staining epithelial and glandular cells, as well as cancerous cells derived from them. On the other hand, Red #106 is suitable for staining connective tissue and capillaries. By laser irradiation, curcumin gives a green fluorescent color, while Red #3 and Red #106 give a red fluorescent color. Therefore, double staining with curcumin and Red #106 makes it easier to identify structure of cells in tissue by superimposing stained images. Accordingly, micro cancer tissue with diameter of about 1 mm and invasive cancer cell groups can be detected.
as §3

[7] = tested on: taste bud; test: Vital staining by coating onto tongue mucosa, laser microscope; type: in vivo, mouse; settings: coating on tongue mucosa
Description: FIG. 20 is a diagram showing, at high magnification, an example of visualization with a multiphoton laser microscope of a taste bud, which is a taste sensory device, after vital staining by coating curcumin onto tongue mucosa of a mouse. FIG. 20 to FIG. 22 are diagrams in which a taste bud, a taste sensory device, is visualized by a laser microscope after vital staining by coating curcumin on mouse tongue mucosa. FIG. 20 and FIG. 21 further show hematoxylin-eosin staining images of taste buds. The nuclei of sensory neuronal cells are not stained with curcumin, so that they are recognized as black negative images. By coating curcumin on oral mucosa, the neuronal cells of a taste bud, which is a taste sensory device, can be visualized. Accordingly, taste disorders can be examined in otolaryngologic field.

[8] = tested on: large intestine of a mouse (normal mucosal tissue); test: Vital staining of normal mouse large intestine, imaging with multiphoton or confocal laser microscope; type: in vivo; settings: for structures stained in double staining: curcumin and Red #106 from lumen side, FIG. 4
Method: as §1, §2, §3

[9] = tested on: optic nerve and optic ganglion cells of retina; test: Vital staining of retina by intraperitoneal administration, laser microscope; type: in vivo, mouse; settings: curcumin vital staining
Description: FIG. 38 is a diagram of visualization of optic nerves and the optic ganglion cells of retina in vivo after vital staining by intraperitoneal administration of sulforhodamine 101 and curcumin to a mouse. (A) is a diagram of visualization of blood vessels fluorescently labeled with sulforhodamine 101 and a bundle of optic nerve fluorescence-labeled with curcumin. […] In an embodiment of the present invention, the nerve cell layer of retina can be visualized by vital staining with curcumin (FIG. 37). According to FIG. 37, it can be seen that in the layer structure of retina, the cell layer of optic ganglion, inner plexiform layer, bipolar cell layer, outer plexiform layer, and outer nuclear layer can be identified. It can be seen that the blood vessel travel and the optic nerve bundle in retina can be visualized at the same time by double staining with blood vessel staining dye (sulforhodamine 101) and curcumin (FIG. 38A). […] Accordingly, the present invention is very useful for detecting retinal diseases.

[10] = tested on: RAS; test: Staining of cells that overexpress a cancer-related gene product (RAS); type: cell-based
Description: For the visualization of expression patterns of cancer-related genes in living cells, the inventors stained a cancer-related gene product to chromatic color using staining agents containing edible dyes and photographed. An edible dye is a natural or artificial dye which has been permitted to be administered to human (For example, a dye for food coloring, or a dye that can be taken as supplements). Specifically, a staining agent containing curcumins (C21H20O6) can be used to selectively stain a STAT3-based cancer-related gene product. In addition, a staining agent containing Red #3 (erythrosine) can be used to selectively stain the expression pattern of ras-based cancer-related gene. More specifically, as a staining agent containing curcumins, a solution containing 1% by weight of curcumin was prepared. As a staining agent containing Red #3, a solution containing 1% by weight of […] was prepared. As a staining agent containing curcumins, a curcumin solution 5˜100-fold diluted from its stock solution (for example, a liquid containing 5% curcumin solution, 45% glycerol, and 50% ethanol) with physiological saline can be used. […] Accordingly, the nucleus surrounded by the cytoplasm is clearly visualized, making it clearer to be analyzed.

[11] = stained and photographed from luminal side
[12] = isolated large intestine, stained from serosa side
[13] = normal large intestine, five-layer structure
[14] = normal mucosal tissue of large intestine, FIG. 3

T1 sequence (P40763 whole entry, species assumed): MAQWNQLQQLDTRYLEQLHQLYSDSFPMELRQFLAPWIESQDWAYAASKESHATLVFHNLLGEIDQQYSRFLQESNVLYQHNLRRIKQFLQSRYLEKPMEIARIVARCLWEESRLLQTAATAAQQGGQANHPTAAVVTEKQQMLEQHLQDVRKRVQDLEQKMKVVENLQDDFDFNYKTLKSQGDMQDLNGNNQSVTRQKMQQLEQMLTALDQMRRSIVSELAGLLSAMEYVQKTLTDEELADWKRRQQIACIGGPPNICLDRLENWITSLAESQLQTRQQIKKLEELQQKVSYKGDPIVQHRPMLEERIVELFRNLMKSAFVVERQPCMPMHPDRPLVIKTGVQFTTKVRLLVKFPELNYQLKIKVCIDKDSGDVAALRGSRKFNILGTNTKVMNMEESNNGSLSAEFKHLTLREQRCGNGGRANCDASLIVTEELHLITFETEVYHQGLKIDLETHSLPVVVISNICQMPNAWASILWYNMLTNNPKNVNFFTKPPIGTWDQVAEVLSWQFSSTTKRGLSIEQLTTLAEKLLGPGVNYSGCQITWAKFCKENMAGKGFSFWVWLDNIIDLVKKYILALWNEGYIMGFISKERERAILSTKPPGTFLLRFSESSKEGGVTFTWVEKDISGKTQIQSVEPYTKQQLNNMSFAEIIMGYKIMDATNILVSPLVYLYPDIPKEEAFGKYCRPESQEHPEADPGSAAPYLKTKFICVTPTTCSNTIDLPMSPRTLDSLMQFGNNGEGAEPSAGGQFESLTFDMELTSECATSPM

**Q.** Which “staining of cells that overexpress STAT3” value [1] does the source give for `COc1cc(/C=C/C(=O)CC(=O)/C=C/c2ccc(O)c(OC)c2)ccc1O` [curcumin] here?
**A.** The value was “can stain cells that overexpress STAT3”.

**Q.** And the “staining of cancer cells relative to surrounding or normal tissue” value ([2]; cancer cells versus surrounding tissue / normal cells)?
**A.** The value was “darker than surrounding tissue”.

**Q.** And the “staining of cytoplasm of cancer cells” value [2, 11]?
**A.** The value was “severely positively”.

**Q.** What about the “staining of nuclei of cancer cells” value [2, 11] of the same compound?
**A.** Its value is “negatively”.

**Q.** And the “staining of cytoplasm of olfactory receptor neurons and cilia having odor receptors” value [3]?
**A.** The value was “stained positively”.

**Q.** And the “staining of nucleus of olfactory receptor neurons” value [3]?
**A.** Its value is “not stained”.

**Q.** What about the “identification of the normal part and malformation part of Auerbach's plexus” value [4] of the same compound?
**A.** Its value is “clearly identified”.

**Q.** What about the “staining of myelin sheath” value [5] of the same compound?
**A.** The value was “can stain myelin sheath”.

**Q.** And the fluorescent color [6]?
**A.** The fluorescent color was “green”.

**Q.** And the “staining of nuclei of sensory neuronal cells of taste bud” value [7]?
**A.** Its value is “not stained”.

**Q.** What about the “structures stained in double staining” value ([8]; isolated large intestine) of the same compound?
**A.** Its value is “cytoplasm of epithelial and glandular cells”.

**Q.** What about the “staining of nerve fibers of Auerbach's plexus” value [8, 12] of the same compound?
**A.** Its value is “moderately”.

**Q.** And the “staining of perikaryon of Auerbach's plexus” value [8, 12]?
**A.** Its value is “strongly”.

**Q.** What about the “staining of Auerbach's plexus inside muscle layer” value [8, 13] of the same compound?
**A.** The value was “strongly positively”.

**Q.** And the “staining of epithelial and glandular cells in epithelial and glandular layers (1)” value [8, 13]?
**A.** Its value is “strongly positively”.

**Q.** And the “staining of the smooth muscle in muscle layer (4)” value [8, 13]?
**A.** The value was “slightly positively”.

**Q.** And the “staining of the smooth muscle in muscularis mucosae (2)” value [8, 13]?
**A.** The value was “moderately positively; also recorded: severely positively”.

**Q.** What about the “staining of the cytoplasm of epithelial cells and gland cells” value [8, 14] of the same compound?
**A.** The value was “stained”.

**Q.** And the “staining of the nucleus of epithelial cells and gland cells” value [8, 14]?
**A.** The value was “not stained”.

**Q.** What about the “staining of the nucleus in perikaryon of Meissner's plexus” value ([8]; stained from serosa side) of the same compound?
**A.** The value was “does not stain the nucleus”.

**Q.** And the “staining of the nucleus in perikaryon of Auerbach's plexus” value ([8]; stained from serosa side, high magnification)?
**A.** The value was “does not stain the nucleus”.

**Q.** And the “signal of the cytoplasm of optic nerve and small/large ganglion cells” value [9]?
**A.** The value was “positive signal”.

**Q.** And the “signal of the nucleus of optic nerve and small/large ganglion cells” value [9]?
**A.** Its value is “negative signal”.

**Q.** What does the source list for `O=C1OC2(c3ccccc31)c1cc(I)c(O)c(I)c1Oc1c2cc(I)c(O)c1I` [Red #3, erythrosine]?
**A.** fluorescent color [6]: red; staining of cells that overexpress RAS [10]: can stain

**Q.** Which fluorescent color [6] does the source give for `CCN(CC)c1ccc2c(-c3ccc(S(=O)(=O)[O-])cc3S(=O)(=O)[O-])c3ccc(=[N+](CC)CC)cc-3oc2c1.[Na+]` [Red #106] here?
**A.** Its fluorescent color is “red”.

**Q.** What about the “structures stained in double staining” value ([8]; isolated large intestine) of the same compound?
**A.** The value was “connective tissue, capillaries and cell membranes of epithelial and glandular cells”.

**Q.** What about the “staining of the network of capillaries surrounding the glandular structures of epithelial and glandular layers (1)” value [8, 13] of the same compound?
**A.** Its value is “strongly positively”.

**Q.** What about the “staining of the smooth muscle in muscle layer (4)” value [8, 13] of the same compound?
**A.** Its value is “slightly positively; also recorded: strongly stained; also recorded: strongly positively”.

**Q.** What about the “staining of the smooth muscle in muscularis mucosae (2)” value [8, 13] of the same compound?
**A.** The value was “slightly positively; also recorded: moderately positively”.

**Q.** And the “staining of the wall of a thick blood vessel inside muscle layer” value [8, 13]?
**A.** Its value is “strongly positively; also recorded: strongly stained”.
